SMILES strings stand for the structures. pIC50: −log10 of the molar value.

For one data set, the target named is T1, P2X purinoceptor 3 (Rattus norvegicus, UniProt P49654).
T1 sequence (P49654 whole entry): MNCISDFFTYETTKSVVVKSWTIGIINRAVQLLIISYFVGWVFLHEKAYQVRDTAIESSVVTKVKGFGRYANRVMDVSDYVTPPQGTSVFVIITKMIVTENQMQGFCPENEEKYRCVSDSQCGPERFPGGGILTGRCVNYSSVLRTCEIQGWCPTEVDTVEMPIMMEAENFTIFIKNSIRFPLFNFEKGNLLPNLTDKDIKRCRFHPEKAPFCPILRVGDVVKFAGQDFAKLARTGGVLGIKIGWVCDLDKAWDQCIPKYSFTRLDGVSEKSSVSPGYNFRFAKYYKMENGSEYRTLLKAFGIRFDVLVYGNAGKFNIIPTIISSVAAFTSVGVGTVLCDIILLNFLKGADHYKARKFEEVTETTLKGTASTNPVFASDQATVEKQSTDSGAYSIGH
In words: Antagonist activity at rat P2X3 receptor expressed in CHO cells. Type of data set: functional, cell-based.

In data set [1] the target is T2, P2X2/P2X3 heterotrimeric receptor (Homo sapiens, UniProt P56373+Q9UBL9).
T2 sequence (Q9UBL9 whole entry): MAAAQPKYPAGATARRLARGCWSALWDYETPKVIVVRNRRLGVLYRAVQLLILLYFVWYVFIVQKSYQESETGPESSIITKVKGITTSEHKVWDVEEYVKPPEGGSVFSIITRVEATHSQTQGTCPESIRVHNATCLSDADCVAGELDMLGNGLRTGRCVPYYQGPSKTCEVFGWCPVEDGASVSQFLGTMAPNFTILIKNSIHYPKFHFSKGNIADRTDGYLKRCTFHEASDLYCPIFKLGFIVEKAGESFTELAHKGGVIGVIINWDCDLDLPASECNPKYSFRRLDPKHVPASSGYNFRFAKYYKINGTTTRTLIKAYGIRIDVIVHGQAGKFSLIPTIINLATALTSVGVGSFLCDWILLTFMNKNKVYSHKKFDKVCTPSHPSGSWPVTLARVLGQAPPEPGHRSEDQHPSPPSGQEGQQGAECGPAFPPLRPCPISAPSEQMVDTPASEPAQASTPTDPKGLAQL
T2 sequence (P56373 whole entry): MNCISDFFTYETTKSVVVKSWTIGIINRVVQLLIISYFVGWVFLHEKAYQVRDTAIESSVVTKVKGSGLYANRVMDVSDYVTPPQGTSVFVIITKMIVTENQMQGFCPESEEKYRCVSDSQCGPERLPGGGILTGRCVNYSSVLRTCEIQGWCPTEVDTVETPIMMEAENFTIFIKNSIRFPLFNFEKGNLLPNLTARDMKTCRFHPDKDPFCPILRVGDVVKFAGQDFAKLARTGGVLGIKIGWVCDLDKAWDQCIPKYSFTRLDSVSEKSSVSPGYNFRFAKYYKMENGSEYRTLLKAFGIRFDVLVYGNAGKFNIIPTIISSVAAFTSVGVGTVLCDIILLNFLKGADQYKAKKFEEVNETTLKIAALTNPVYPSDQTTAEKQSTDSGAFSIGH
Briefly: Antagonist activity at human P2X2/P2X3 receptor expressed in human 1321N1C cells. The format is functional, cell-based.

Data set [2] can be described thus: Protein binding in rat plasma. The format is ADME, cell-free. The conditions noted are these: read-out: PPB (converted).
Another data set deals with Cytochrome P450 3A4 (Homo sapiens, UniProt P08684). Briefly: Inhibition of CYP3A4. The format is ADME.
The target in a further data set is Cytochrome P450 2D6 (Homo sapiens, UniProt P10635). Briefly: Inhibition of CYP2D6. Type of data set: ADME.
For another data set, the target named is P2X purinoceptor 1 (Homo sapiens, UniProt P51575). Briefly: Antagonist activity at P2X1 receptor. The format is functional.
In the next data set the target is P2X purinoceptor 2 (Homo sapiens, UniProt Q9UBL9). Briefly: Antagonist activity at P2X2 receptor. The format is functional.
For another data set, the target named is P2X purinoceptor 4 (Homo sapiens, UniProt Q99571). Briefly: Antagonist activity at P2X4 receptor. Type of data set: functional.
For a further data set, the target named is P2X purinoceptor 5 (Homo sapiens, UniProt Q93086). Briefly: Antagonist activity at P2X5 receptor. The format is functional.
Another data set addresses P2X purinoceptor 6 (Homo sapiens, UniProt O15547). Briefly: Antagonist activity at P2X6 receptor. Type of data set: functional.
The target of another data set is P2X purinoceptor 7 (Homo sapiens, UniProt Q99572). In words: Antagonist activity at P2X7 receptor. Type of data set: functional.
Chain of P2X purinoceptor 7 (Q99572 whole entry): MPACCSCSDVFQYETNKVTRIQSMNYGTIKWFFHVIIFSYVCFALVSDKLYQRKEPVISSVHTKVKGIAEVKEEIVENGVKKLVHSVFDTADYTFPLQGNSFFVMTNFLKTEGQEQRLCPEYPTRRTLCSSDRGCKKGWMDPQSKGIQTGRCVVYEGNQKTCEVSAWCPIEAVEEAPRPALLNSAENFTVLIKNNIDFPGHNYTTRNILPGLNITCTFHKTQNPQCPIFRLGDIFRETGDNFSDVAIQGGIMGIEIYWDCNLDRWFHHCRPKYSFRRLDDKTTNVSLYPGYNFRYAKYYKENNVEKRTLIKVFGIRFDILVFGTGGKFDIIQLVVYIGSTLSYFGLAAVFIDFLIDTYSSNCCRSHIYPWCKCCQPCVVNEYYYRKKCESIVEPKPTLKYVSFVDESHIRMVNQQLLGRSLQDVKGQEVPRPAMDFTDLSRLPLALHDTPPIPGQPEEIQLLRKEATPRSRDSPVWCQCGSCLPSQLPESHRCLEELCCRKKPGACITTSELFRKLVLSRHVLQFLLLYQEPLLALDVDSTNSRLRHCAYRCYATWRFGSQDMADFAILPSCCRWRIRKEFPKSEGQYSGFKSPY

Chain of Cytochrome P450 3A4 (P08684 whole entry): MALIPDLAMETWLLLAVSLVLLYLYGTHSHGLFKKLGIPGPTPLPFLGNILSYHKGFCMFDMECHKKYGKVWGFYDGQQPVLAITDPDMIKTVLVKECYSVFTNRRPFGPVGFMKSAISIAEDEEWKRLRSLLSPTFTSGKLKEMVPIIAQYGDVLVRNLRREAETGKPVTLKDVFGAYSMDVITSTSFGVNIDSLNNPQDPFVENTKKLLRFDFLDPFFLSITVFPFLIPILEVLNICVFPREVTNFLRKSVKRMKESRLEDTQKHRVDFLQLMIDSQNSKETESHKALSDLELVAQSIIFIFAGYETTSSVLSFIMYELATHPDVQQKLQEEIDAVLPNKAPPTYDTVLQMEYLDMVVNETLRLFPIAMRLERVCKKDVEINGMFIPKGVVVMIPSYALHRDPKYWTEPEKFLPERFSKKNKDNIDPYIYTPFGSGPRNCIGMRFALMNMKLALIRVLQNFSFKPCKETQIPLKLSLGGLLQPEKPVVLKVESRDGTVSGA
Chain of P2X purinoceptor 5 (Q93086 whole entry): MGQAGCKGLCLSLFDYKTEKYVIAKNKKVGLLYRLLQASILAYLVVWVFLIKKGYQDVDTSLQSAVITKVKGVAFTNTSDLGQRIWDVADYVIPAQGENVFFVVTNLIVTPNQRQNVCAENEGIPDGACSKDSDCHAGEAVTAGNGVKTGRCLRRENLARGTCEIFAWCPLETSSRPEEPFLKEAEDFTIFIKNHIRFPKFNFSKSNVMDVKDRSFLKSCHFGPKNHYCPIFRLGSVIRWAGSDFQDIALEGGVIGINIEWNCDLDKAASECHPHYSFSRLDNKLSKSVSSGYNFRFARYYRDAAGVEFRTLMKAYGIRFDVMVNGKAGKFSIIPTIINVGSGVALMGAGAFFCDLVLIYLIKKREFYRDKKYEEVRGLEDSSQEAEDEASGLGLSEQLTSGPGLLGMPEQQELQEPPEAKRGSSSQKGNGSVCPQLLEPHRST
Chain of P2X purinoceptor 6 (O15547 whole entry): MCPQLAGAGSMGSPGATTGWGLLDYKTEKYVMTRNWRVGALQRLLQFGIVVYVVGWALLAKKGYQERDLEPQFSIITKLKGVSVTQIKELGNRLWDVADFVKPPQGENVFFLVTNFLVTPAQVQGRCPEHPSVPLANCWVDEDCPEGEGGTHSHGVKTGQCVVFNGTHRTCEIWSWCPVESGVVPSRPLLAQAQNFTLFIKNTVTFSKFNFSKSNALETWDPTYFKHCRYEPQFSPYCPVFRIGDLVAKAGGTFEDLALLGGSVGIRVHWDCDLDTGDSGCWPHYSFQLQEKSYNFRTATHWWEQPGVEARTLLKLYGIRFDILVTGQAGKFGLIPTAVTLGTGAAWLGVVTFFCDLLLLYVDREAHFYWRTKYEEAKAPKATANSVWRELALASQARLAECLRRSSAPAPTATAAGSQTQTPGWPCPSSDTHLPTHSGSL
Chain of Cytochrome P450 2D6 (P10635 whole entry): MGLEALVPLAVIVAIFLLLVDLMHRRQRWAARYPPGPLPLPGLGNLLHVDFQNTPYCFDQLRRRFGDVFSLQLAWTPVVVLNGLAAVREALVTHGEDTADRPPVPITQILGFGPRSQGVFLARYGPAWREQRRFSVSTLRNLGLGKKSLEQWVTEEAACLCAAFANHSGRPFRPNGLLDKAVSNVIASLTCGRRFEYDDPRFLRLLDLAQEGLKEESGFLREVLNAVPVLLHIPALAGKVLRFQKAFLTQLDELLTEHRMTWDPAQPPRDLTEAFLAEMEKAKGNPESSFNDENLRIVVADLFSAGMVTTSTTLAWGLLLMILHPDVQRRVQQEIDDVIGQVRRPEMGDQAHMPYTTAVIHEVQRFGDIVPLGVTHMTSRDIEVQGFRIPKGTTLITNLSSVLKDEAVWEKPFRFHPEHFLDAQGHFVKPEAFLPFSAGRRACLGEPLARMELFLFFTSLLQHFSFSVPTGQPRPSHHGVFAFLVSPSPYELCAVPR
Chain of P2X purinoceptor 4 (Q99571 whole entry): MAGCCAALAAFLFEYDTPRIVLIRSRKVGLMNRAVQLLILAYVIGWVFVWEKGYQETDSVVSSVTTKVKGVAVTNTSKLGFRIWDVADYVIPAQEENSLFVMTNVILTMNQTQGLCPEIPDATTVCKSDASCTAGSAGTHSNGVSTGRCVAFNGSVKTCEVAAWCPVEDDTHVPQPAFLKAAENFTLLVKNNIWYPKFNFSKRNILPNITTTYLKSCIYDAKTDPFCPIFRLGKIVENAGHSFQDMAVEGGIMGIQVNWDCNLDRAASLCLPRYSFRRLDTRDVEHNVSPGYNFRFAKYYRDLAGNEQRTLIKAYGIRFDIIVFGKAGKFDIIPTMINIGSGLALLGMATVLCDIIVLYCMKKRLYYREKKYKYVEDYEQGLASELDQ
Chain of P2X purinoceptor 1 (P51575 whole entry): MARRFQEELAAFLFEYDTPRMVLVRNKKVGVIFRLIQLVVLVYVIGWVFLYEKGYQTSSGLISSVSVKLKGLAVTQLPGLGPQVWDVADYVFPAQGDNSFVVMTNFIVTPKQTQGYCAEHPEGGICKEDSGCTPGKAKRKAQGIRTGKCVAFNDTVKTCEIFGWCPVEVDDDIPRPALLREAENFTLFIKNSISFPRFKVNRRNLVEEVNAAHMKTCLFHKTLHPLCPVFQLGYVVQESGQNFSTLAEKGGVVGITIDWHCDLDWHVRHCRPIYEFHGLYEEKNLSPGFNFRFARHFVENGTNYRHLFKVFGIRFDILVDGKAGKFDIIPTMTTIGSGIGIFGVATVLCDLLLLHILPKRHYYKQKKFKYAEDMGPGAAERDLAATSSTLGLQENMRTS

One may read the pIC50 as −log10 of the IC50, conventionally taken in molar units. A higher pIC50 goes with a small IC50. Regarding `CCCc1nc(-c2ccccc2)oc1C(=O)NC(C)CN1CCN(c2ncccn2)CC1` (stereo unspecified), the negative logarithm of the IC50 (pIC50) is 6.60 against P2X purinoceptor 3; less than 5.00 in data set [1]; greater than 5.00 against Cytochrome P450 3A4; greater than 5.00 against Cytochrome P450 2D6; less than 5.00 against P2X purinoceptor 1; less than 5.00 against P2X purinoceptor 2. Moreover, the negative logarithm of the IC50 (pIC50) against P2X purinoceptor 4, on P2X purinoceptor 5, on P2X purinoceptor 6 and at P2X purinoceptor 7 was less than 5.00 each time. Further, in [2], the fraction unbound is less than 0.01.

Values taken from ChEMBL document CHEMBL1159093, “Discovery and optimization of RO-85, a novel drug-like, potent, and selective P2X3 receptor antagonist” (Bioorg Med Chem Lett, 2010).
